In patent US12077503B2, “Substituted cyclic amides and their use as herbicides” (FMC CORPORATION, priority 2015, dated 2024):

Legend:
Type in all cases: in vivo
Kochia (Kochia scoparia) [1] = experiment: Test A preemergence; conditions: Bassia scoparia, pre-emergence, 240 h, 0 to 100 scale where 0 is no effect and 100 is complete control, read-out: Kochia plant response rating; for pest or weed control at 31 g/ha: 31 g ai/ha, Preemergence; for pest or weed control at 125 g/ha: 125 g ai/ha, preemergence, approx. 10 d
Procedure, shortened: (§1)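 Treatment is preemergence as a directed soil spray after planting, or postemergence at the one- to two-leaf stage, with test chemical in a non-phytotoxic solvent mixture plus surfactant. Plants stay in the greenhouse about 10 d before visual injury scoring on a 0 to 100 scale versus untreated controls.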

[2] = test system: barnyardgrass (Echinochloa crus-galli); experiment: Test A preemergence; conditions: Echinochloa crus-galli, pre-emergence, 240 h, 0 to 100 scale where 0 is no effect and 100 is complete control, read-out: Barnyardgrass plant response rating; for pest or weed control at 31 g/ha: 31 g ai/ha, Preemergence; for pest or weed control at 125 g/ha: 125 g ai/ha, preemergence, approx. 10 d
Procedure, shortened: as §1

[3] = test system: giant foxtail (Setaria faberii); experiment: Test A preemergence; conditions: Setaria faberi, pre-emergence, 240 h, 0 to 100 scale where 0 is no effect and 100 is complete control, read-out: Foxtail, Giant plant response rating; for pest or weed control at 31 g/ha: 31 g ai/ha, Preemergence; for pest or weed control at 125 g/ha: 125 g ai/ha, preemergence, approx. 10 d
Procedure, shortened: as §1

[4] = test system: pigweed (Amaranthus retroflexus); experiment: Test A preemergence; conditions: Amaranthus retroflexus, pre-emergence, 240 h, 0 to 100 scale where 0 is no effect and 100 is complete control, read-out: Pigweed plant response rating; for pest or weed control at 31 g/ha: 31 g ai/ha, Preemergence; for pest or weed control at 125 g/ha: 125 g ai/ha, preemergence, approx. 10 d
[5] = test system: ragweed (common ragweed, Ambrosia elatior); experiment: Test A preemergence; conditions: Ambrosia artemisiifolia, pre-emergence, 240 h, 0 to 100 scale where 0 is no effect and 100 is complete control, read-out: Ragweed plant response rating; for pest or weed control at 31 g/ha: 31 g ai/ha, Preemergence; for pest or weed control at 125 g/ha: 125 g ai/ha, preemergence, approx. 10 d
Procedure, shortened: as §1

[6] = test system: ryegrass, Italian (Italian ryegrass, Lolium multiflorum); experiment: Test A preemergence; conditions: Lolium multiflorum, pre-emergence, 240 h, 0 to 100 scale where 0 is no effect and 100 is complete control, read-out: Ryegrass, Italian plant response rating; for pest or weed control at 31 g/ha: 31 g ai/ha, Preemergence; for pest or weed control at 125 g/ha: 125 g ai/ha, preemergence, approx. 10 d
Procedure, shortened: as §1

[7] = test system: Galium (catchweed bedstraw, Galium aparine); experiment: Test A postemergence; conditions: Galium, post-emergence, 240 h; for pest or weed control at 125 g/ha: 125 g ai/ha, postemergence, visual injury on 0 to 100 scale (0 no effect, 100 complete control), approx. 10 d, read-out: Galium plant response rating; for pest or weed control at 31 g/ha: Postemergence, 31 g ai/ha, visual injury after approx. 10 d, 0 to 100 scale, 0 no effect, 100 complete control, read-out: Plant response rating, Galium
Procedure, shortened: as §1

Kochia (Kochia scoparia) [8] = experiment: Test A postemergence; conditions: Bassia scoparia, post-emergence, 240 h; for pest or weed control at 125 g/ha: 125 g ai/ha, postemergence, visual injury on 0 to 100 scale (0 no effect, 100 complete control), approx. 10 d, read-out: Kochia plant response rating; for pest or weed control at 31 g/ha: Postemergence, 31 g ai/ha, visual injury after approx. 10 d, 0 to 100 scale, 0 no effect, 100 complete control, read-out: Plant response rating, Kochia
Procedure, shortened: as §1

[9] = test system: barnyardgrass (Echinochloa crus-galli); experiment: Test A postemergence; conditions: Echinochloa crus-galli, post-emergence, 240 h; for pest or weed control at 125 g/ha: 125 g ai/ha, postemergence, visual injury on 0 to 100 scale (0 no effect, 100 complete control), approx. 10 d, read-out: Barnyardgrass plant response rating; for pest or weed control at 31 g/ha: Postemergence, 31 g ai/ha, visual injury after approx. 10 d, 0 to 100 scale, 0 no effect, 100 complete control, read-out: Plant response rating, Barnyardgrass
Procedure, shortened: as §1

[10] = test system: blackgrass (Alopecurus myosuroides); experiment: Test A postemergence; conditions: Alopecurus myosuroides, post-emergence, 240 h; for pest or weed control at 125 g/ha: 125 g ai/ha, postemergence, visual injury on 0 to 100 scale (0 no effect, 100 complete control), approx. 10 d, read-out: Blackgrass plant response rating; for pest or weed control at 31 g/ha: Postemergence, 31 g ai/ha, visual injury after approx. 10 d, 0 to 100 scale, 0 no effect, 100 complete control, read-out: Plant response rating, Blackgrass
Procedure, shortened: as §1

corn (Zea mays) = experiment: Test A postemergence; conditions: Zea mays, post-emergence, 240 h; for plant injury at 125 g/ha: 125 g ai/ha, postemergence, visual injury on 0 to 100 scale (0 no effect, 100 complete control), approx. 10 d, read-out: Corn plant response rating; for Corn plant response rating (crop injury, 0 = no effect, 100 = complete kill) at 31 g/ha: Postemergence, 31 g ai/ha, visual injury after approx. 10 d, 0 to 100 scale, 100 complete control
Procedure, shortened: as §1

[11] = test system: giant foxtail (Setaria faberii); experiment: Test A postemergence; conditions: Setaria faberi, post-emergence, 240 h; for pest or weed control at 125 g/ha: 125 g ai/ha, postemergence, visual injury on 0 to 100 scale (0 no effect, 100 complete control), approx. 10 d, read-out: Foxtail, Giant plant response rating; for pest or weed control at 31 g/ha: Postemergence, 31 g ai/ha, visual injury after approx. 10 d, 0 to 100 scale, 0 no effect, 100 complete control, read-out: Plant response rating, Foxtail, Giant
Procedure, shortened: as §1

[12] = test system: pigweed (Amaranthus retroflexus); experiment: Test A postemergence; conditions: Amaranthus retroflexus, post-emergence, 240 h; for pest or weed control at 125 g/ha: 125 g ai/ha, postemergence, visual injury on 0 to 100 scale (0 no effect, 100 complete control), approx. 10 d, read-out: Pigweed plant response rating; for pest or weed control at 31 g/ha: Postemergence, 31 g ai/ha, visual injury after approx. 10 d, 0 to 100 scale, 0 no effect, 100 complete control, read-out: Plant response rating, Pigweed
Procedure, shortened: as §1

[13] = test system: ragweed (common ragweed, Ambrosia elatior); experiment: Test A postemergence; conditions: Ambrosia artemisiifolia, post-emergence, 240 h; for pest or weed control at 125 g/ha: 125 g ai/ha, postemergence, visual injury on 0 to 100 scale (0 no effect, 100 complete control), approx. 10 d, read-out: Ragweed plant response rating; for pest or weed control at 31 g/ha: Postemergence, 31 g ai/ha, visual injury after approx. 10 d, 0 to 100 scale, 0 no effect, 100 complete control, read-out: Plant response rating, Ragweed
Procedure, shortened: as §1

[14] = test system: ryegrass, Italian (Italian ryegrass, Lolium multiflorum); experiment: Test A postemergence; conditions: Lolium multiflorum, post-emergence, 240 h; for pest or weed control at 125 g/ha: 125 g ai/ha, postemergence, visual injury on 0 to 100 scale (0 no effect, 100 complete control), approx. 10 d, read-out: Ryegrass, Italian plant response rating; for pest or weed control at 31 g/ha: Postemergence, 31 g ai/ha, visual injury after approx. 10 d, 0 to 100 scale, 0 no effect, 100 complete control, read-out: Plant response rating, Ryegrass, Italian
Procedure, shortened: as §1

[15] = test system: wheat (Triticum aestivum); experiment: Test A postemergence; conditions: Triticum aestivum, post-emergence, 240 h; for plant injury at 125 g/ha: 125 g ai/ha, postemergence, visual injury on 0 to 100 scale (0 no effect, 100 complete control), approx. 10 d, read-out: Wheat plant response rating; for plant injury at 31 g/ha: Postemergence, 31 g ai/ha, visual injury after approx. 10 d, 0 to 100 scale, 0 no effect, 100 complete control, read-out: Plant response rating, Wheat
Procedure, shortened: as §1

[16] = test system: barnyardgrass (Echinochloa crus-galli); experiment: Test B flooded paddy test; conditions: Echinochloa crus-galli, 250 g ai/ha, Flood; 0 to 100 scale where 0 is no effect and 100 is complete control; read-out: Barnyardgrass plant response rating
Procedure, shortened: (§2)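 Compound goes directly into floodwater once pots are flooded 3 cm above soil, targeting plants at two leaves; the water depth is then held for the test duration. Plants sit 13–15 d in a greenhouse and are rated visually, 100 denoting complete control.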

[17] = test system: ducksalad (Heteranthera limosa); experiment: Test B flooded paddy test; conditions: Heteranthera limosa, 250 g ai/ha, Flood; 0 to 100 scale where 0 is no effect and 100 is complete control; read-out: Ducksalad plant response rating
Procedure, shortened: as §2

rice (Oryra sativa) = experiment: Test B flooded paddy test; conditions: Oryza sativa, 250 g ai/ha, Flood; 0 to 100 scale where 0 is no effect and 100 is complete control; read-out: Rice plant response rating
Procedure, shortened: as §2

[18] = test system: sedge, umbrella (small-flower umbrella sedge, Cyperus difformis); experiment: Test B flooded paddy test; conditions: Cyperus difformis, 250 g ai/ha, Flood; 0 to 100 scale where 0 is no effect and 100 is complete control; read-out: Sedge, Umbrella plant response rating
Procedure, shortened: as §2

Row | Structure (SMILES) | pest or weed control at 31 g/ha (Kochia (Kochia scoparia) [1]) | pest or weed control at 125 g/ha (Kochia (Kochia scoparia) [1]) | pest or weed control at 31 g/ha [2] | pest or weed control at 125 g/ha [2] | pest or weed control at 31 g/ha [3] | pest or weed control at 125 g/ha [3] | pest or weed control at 31 g/ha [4] | pest or weed control at 125 g/ha [4] | pest or weed control at 31 g/ha [5] | pest or weed control at 125 g/ha [5] | pest or weed control at 31 g/ha [6] | pest or weed control at 125 g/ha [6] | pest or weed control at 125 g/ha [7] | pest or weed control at 31 g/ha [7] | pest or weed control at 125 g/ha (Kochia (Kochia scoparia) [8]) | pest or weed control at 31 g/ha (Kochia (Kochia scoparia) [8]) | pest or weed control at 125 g/ha [9] | pest or weed control at 31 g/ha [9] | pest or weed control at 125 g/ha [10] | pest or weed control at 31 g/ha [10] | further results
1 | CN1C[C@H](c2csc3c2CCOC3)[C@@H](C(=O)Nc2ccc(F)c(F)c2F)C1=O [Compound 1077] | 0% | 20% | 80% | 100% | 100% | 100% | 0% | 0% | 0% | 0% | 0% | 10% | 70% | 20% | 0% | 0% | 90% | 70% | 30% | 0% | plant injury at 125 g/ha (corn (Zea mays)): 10%; Corn plant response rating (crop injury, 0 = no effect, 100 = complete kill) at 31 g/ha (corn (Zea mays)): 0%; pest or weed control at 125 g/ha [11]: 90%; pest or weed control at 31 g/ha [11]: 50%; pest or weed control at 125 g/ha [12]: 0%; pest or weed control at 31 g/ha [12]: 0%; pest or weed control at 125 g/ha [13]: 0%; pest or weed control at 31 g/ha [13]: 0%; pest or weed control at 125 g/ha [14]: 20%; pest or weed control at 31 g/ha [14]: 0%; plant injury at 125 g/ha [15]: 0%; plant injury at 31 g/ha [15]: 0%; pest or weed control at 250 g/ha [16]: 85%; pest or weed control at 250 g/ha [17]: 90%; pest or weed control at 250 g/ha (rice (Oryra sativa)): 15%; pest or weed control at 250 g/ha [18]: 0%
2 | CN1C[C@H](c2csc3c2CCOC3)[C@@H](C(=O)Nc2ccccc2S(C)(=O)=O)C1=O [Compound 1078] | 0% | 0% | 0% | 0% | 0% | 0% | 0% | 0% | 0% | 0% | 0% | 0% | 0% | 0% | 0% | 0% | 10% | 0% | 0% | 0% | plant injury at 125 g/ha (corn (Zea mays)): 0%; Corn plant response rating (crop injury, 0 = no effect, 100 = complete kill) at 31 g/ha (corn (Zea mays)): 0%; pest or weed control at 125 g/ha [11]: 0%; pest or weed control at 31 g/ha [11]: 0%; pest or weed control at 125 g/ha [12]: 0%; pest or weed control at 31 g/ha [12]: 0%; pest or weed control at 125 g/ha [13]: 0%; pest or weed control at 31 g/ha [13]: 0%; pest or weed control at 125 g/ha [14]: 0%; pest or weed control at 31 g/ha [14]: 0%; plant injury at 125 g/ha [15]: 0%; plant injury at 31 g/ha [15]: 0%; pest or weed control at 250 g/ha [16]: 30%; pest or weed control at 250 g/ha [17]: 0%; pest or weed control at 250 g/ha (rice (Oryra sativa)): 0%; pest or weed control at 250 g/ha [18]: 0%
